What all share (assay type): functional
For test [1], the system named is Rattus norvegicus. The test can be described thus: Antihypertensive activity in spontaneous hypertensive rat model assessed as change in blood pressure at 100 mg/kg, po on day 1 and 3 measured 2 hrs post dose on day 1 by standard 3-day test.
Test [2] concerns Rattus norvegicus. The test can be described thus: Antihypertensive activity in spontaneous hypertensive rat model assessed as change in blood pressure at 100 mg/kg, po on day 1 and 3 measured 2 hrs post dose on day 3 by standard 3-day test.
For test [3], the system named is Rattus norvegicus. The test can be described thus: Antihypertensive activity in spontaneous hypertensive rat model assessed as change in blood pressure at 50 mg/kg, po on day 1 and 3 measured 2 hrs post dose on day 3 by standard 3-day test.

Activity calls are given as the source filed them. No cut-off for these calls is given here.

For the compound `O=C(NN1CCN(CCc2c[nH]c3ccccc23)CC1)c1ccc(Cl)cc1`, the figures for the Activity in the test with Rattus norvegicus [1] and with Rattus norvegicus [2] were 17 mmHg and 22 mmHg, respectively.

Take `COc1cccc(C(=O)NN2CCN(CCc3c[nH]c4ccccc34)CC2)c1`: the Activity in the test on Rattus norvegicus [1] is on record as 21 mmHg; with Rattus norvegicus [2] it was 2 mmHg.

Consider `COc1cc(C(=O)NN2CCN(CCc3c[nH]c4ccccc34)CC2)cc(OC)c1OC`, for which the Activity in the test with Rattus norvegicus [1] is reported as 63 mmHg; in the test with Rattus norvegicus [2] it was 70 mmHg.

As for `O=C(NN1CCN(CCc2c[nH]c3ccccc23)CC1)c1ccc(F)cc1`, the Activity stood at 56 mmHg with Rattus norvegicus [1] and 57 mmHg in the test with Rattus norvegicus [2].

For `O=C(NN1CCN(Cc2c[nH]c3ccccc23)CC1)c1ccccc1`, the result with Rattus norvegicus [1] and in the test on Rattus norvegicus [2] was Active.

In the case of `Cc1ccc(C(=O)NN2CCN(CCc3c[nH]c4ccccc34)CC2)cc1`, the Activity with Rattus norvegicus [1] was determined as 18 mmHg; in the test on Rattus norvegicus [2] it was 43 mmHg.

In the case of `O=C(NN1CCN(CCc2c[nH]c3ccccc23)CC1)c1ccc(C(F)(F)F)cc1`, the Activity in the test with Rattus norvegicus [1] worked out at 9 mmHg; in the test with Rattus norvegicus [2] it was 36 mmHg.

Regarding `Cc1[nH]c2ccccc2c1CCN1CCN(NC(=O)c2ccc([N+](=O)[O-])cc2)CC1`, the Activity is given as 25 mmHg in the test with Rattus norvegicus [1] and 20 mmHg in the test with Rattus norvegicus [2].

As to `COc1cc2[nH]c(C)c(CCN3CCN(NC(=O)c4ccc(F)cc4)CC3)c2cc1OC`, the Activity in the test on Rattus norvegicus [1] was found to be 9 mmHg; in the test with Rattus norvegicus [2] it was 23 mmHg.

Consider `O=C(NN1CCN(CCc2c[nH]c3ccccc23)CC1)c1ccc([N+](=O)[O-])cc1`, for which the Activity in the test on Rattus norvegicus [1] came to 17 mmHg; in the test with Rattus norvegicus [2], 16 mmHg.

Turning to `O=C(NN1CCN(CCc2c[nH]c3ccccc23)CC1)C1CC2CCC1C2` (stereo unspecified), the Activity came to 20 mmHg in the test on Rattus norvegicus [1] and 11 mmHg in the test on Rattus norvegicus [2].

For the compound `CC(=O)NN1CCN(CCc2c[nH]c3ccccc23)CC1`, the figures for the Activity with Rattus norvegicus [1] and in the test on Rattus norvegicus [2] were 32 mmHg and 40 mmHg, respectively.

Turning to `O=C(NN1CCN(Cc2c[nH]c3ccccc23)CC1)c1ccc(F)cc1`, the outcome with Rattus norvegicus [1] and with Rattus norvegicus [2] was Active.

Take `COc1cc2[nH]c(C)c(CCN3CCN(NC(=O)c4ccccc4)CC3)c2cc1OC`: the values for the Activity with Rattus norvegicus [1] and in the test on Rattus norvegicus [2] were 9 mmHg and 12 mmHg, respectively.

Regarding `O=C(NN1CCN(CC(O)c2c[nH]c3ccccc23)CC1)c1ccccc1` (racemic), the results for the Activity in the test with Rattus norvegicus [1] and in the test on Rattus norvegicus [2] were 30 mmHg and 33 mmHg, respectively.

As for `O=C(NN1CCN(CCc2c[nH]c3ccccc23)CC1)c1ccccc1F`, the figures for the Activity with Rattus norvegicus [1] and with Rattus norvegicus [2] were 47 mmHg and 56 mmHg, respectively.

For the compound `O=C(NN1CCN(CCc2c[nH]c3ccccc23)CC1)c1cccc(C(F)(F)F)c1`, the Activity in the test on Rattus norvegicus [1] is recorded as 49 mmHg; with Rattus norvegicus [2] it was 19 mmHg.

Take `O=C(NN1CCN(CCc2c[nH]c3ccccc23)CC1)C(c1ccccc1)c1ccccc1`: the Activity was 3 mmHg in the test with Rattus norvegicus [1] and 10 mmHg with Rattus norvegicus [2].

In the case of `O=C(NN1CCN(CCc2c[nH]c3ccccc23)CC1)c1ccco1`, the Activity in the test with Rattus norvegicus [1] was 58 mmHg; in the test on Rattus norvegicus [2], 64 mmHg.

On to `Cl.O=C(NC1CCN(CCc2c[nH]c3ccccc23)CC1)c1ccccc1` [INDORAMIN HYDROCHLORIDE], for which the results for the Activity with Rattus norvegicus [1] and in the test with Rattus norvegicus [3] were 63 mmHg and 79 mmHg, respectively.

`COc1cc(C(=O)NN2CCN(Cc3c[nH]c4ccccc34)CC2)cc(OC)c1OC`: the Activity is recorded as 20 mmHg in the test on Rattus norvegicus [1] and 36 mmHg with Rattus norvegicus [2].

Turning to `COc1cc2[nH]c(C)c(CCN3CCN(NC(=O)c4ccccc4OC)CC3)c2cc1OC.Cl`, the results for the Activity in the test with Rattus norvegicus [1] and in the test with Rattus norvegicus [2] were 4 mmHg and 15 mmHg, respectively.

As to `Cc1ccccc1C(=O)NN1CCN(CCc2c[nH]c3ccccc23)CC1`, the Activity in the test with Rattus norvegicus [1] and in the test on Rattus norvegicus [2] was 19 mmHg in each case.

Take `COc1cc2[nH]c(C)c(CCN3CCN(NC(=O)c4ccc(C(F)(F)F)cc4)CC3)c2cc1OC.Cl`: the Activity in the test on Rattus norvegicus [1] was determined as 2 mmHg; with Rattus norvegicus [2], 5 mmHg.

As to `Cc1cccc(C(=O)NN2CCN(CCc3c[nH]c4ccccc34)CC2)c1`, the Activity with Rattus norvegicus [1] worked out at 17 mmHg; with Rattus norvegicus [2], 26 mmHg.

Take `O.O=C(NN1CCN(CCc2c[nH]c3ccccc23)CC1)c1ccccc1`: the Activity is on record as 24 mmHg with Rattus norvegicus [1] and 56 mmHg with Rattus norvegicus [2].

For `O=C(NN1CCN(CCc2c[nH]c3ccccc23)CC1)C1CCCCC1`, the values for the Activity in the test on Rattus norvegicus [1] and in the test on Rattus norvegicus [2] were 37 mmHg and 35 mmHg, respectively.

With `Cc1[nH]c2ccccc2c1CCN1CCN(NC(=O)c2ccccc2)CC1`, the Activity in the test with Rattus norvegicus [1] came to 39 mmHg; in the test on Rattus norvegicus [2], 37 mmHg.

As to `O=C(NN1CCN(CCc2c[nH]c3ccccc23)CC1)c1ccncc1`, the Activity with Rattus norvegicus [1] worked out at 23 mmHg; with Rattus norvegicus [2], 24 mmHg.

For `COc1cc(OC)cc(C(=O)NN2CCN(CCc3c[nH]c4ccccc34)CC2)c1`, the Activity is listed as 46 mmHg in the test on Rattus norvegicus [1] and 111 mmHg in the test on Rattus norvegicus [2].

`Cc1[nH]c2ccccc2c1CCN1CCN(NC(=O)c2ccc(F)cc2)CC1`: the Activity with Rattus norvegicus [1] turned out to be 29 mmHg; with Rattus norvegicus [2] it was 25 mmHg.

Regarding `COc1ccc(C(=O)NN2CCN(CCc3c[nH]c4ccccc34)CC2)cc1`, the Activity was 25 mmHg in the test with Rattus norvegicus [1] and 19 mmHg in the test on Rattus norvegicus [2].

Regarding `COc1ccccc1C(=O)NN1CCN(CCc2c[nH]c3ccccc23)CC1`, the Activity was 7 mmHg in the test on Rattus norvegicus [1] and 23 mmHg in the test with Rattus norvegicus [2].

Source of the values: ChEMBL document CHEMBL3272129, “Synthesis of 3-(4-acylaminopiperazin-1-ylalkyl)indoles as potential antihypertensive agents” (1977).
